Results on six sequences are retold here after PMC2199025 (The Journal of Experimental Medicine, 1997).

Test [1] addresses H-2K^b (Mus musculus, UniProt P01901). The experiment in a line: Peptide competition cytotoxicity assay. It is filed as cell-based, murine.
Test [2] has as its target T1, transporters associated with processing (Mus musculus, UniProt P21958+P36371).
T1 sequence (P21958 1-724): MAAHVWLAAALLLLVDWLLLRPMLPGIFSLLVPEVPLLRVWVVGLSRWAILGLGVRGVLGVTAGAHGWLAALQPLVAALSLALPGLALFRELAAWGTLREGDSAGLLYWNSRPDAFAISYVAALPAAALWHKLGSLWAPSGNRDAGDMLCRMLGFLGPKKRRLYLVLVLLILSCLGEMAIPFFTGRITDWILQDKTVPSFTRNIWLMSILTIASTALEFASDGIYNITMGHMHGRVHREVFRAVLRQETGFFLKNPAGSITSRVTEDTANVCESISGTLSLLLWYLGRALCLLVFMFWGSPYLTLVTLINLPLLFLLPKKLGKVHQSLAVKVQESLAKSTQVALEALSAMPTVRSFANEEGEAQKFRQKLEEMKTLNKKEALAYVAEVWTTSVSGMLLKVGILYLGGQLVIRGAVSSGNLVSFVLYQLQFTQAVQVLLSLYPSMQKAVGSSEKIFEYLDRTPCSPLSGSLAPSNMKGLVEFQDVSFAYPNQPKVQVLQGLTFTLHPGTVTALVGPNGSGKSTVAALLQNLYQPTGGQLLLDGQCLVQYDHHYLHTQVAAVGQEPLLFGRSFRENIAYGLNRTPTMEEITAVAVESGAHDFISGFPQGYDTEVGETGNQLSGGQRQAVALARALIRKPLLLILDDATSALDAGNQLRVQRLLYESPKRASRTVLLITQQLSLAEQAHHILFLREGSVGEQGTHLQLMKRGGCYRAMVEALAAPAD
T1 sequence (P36371 1-702): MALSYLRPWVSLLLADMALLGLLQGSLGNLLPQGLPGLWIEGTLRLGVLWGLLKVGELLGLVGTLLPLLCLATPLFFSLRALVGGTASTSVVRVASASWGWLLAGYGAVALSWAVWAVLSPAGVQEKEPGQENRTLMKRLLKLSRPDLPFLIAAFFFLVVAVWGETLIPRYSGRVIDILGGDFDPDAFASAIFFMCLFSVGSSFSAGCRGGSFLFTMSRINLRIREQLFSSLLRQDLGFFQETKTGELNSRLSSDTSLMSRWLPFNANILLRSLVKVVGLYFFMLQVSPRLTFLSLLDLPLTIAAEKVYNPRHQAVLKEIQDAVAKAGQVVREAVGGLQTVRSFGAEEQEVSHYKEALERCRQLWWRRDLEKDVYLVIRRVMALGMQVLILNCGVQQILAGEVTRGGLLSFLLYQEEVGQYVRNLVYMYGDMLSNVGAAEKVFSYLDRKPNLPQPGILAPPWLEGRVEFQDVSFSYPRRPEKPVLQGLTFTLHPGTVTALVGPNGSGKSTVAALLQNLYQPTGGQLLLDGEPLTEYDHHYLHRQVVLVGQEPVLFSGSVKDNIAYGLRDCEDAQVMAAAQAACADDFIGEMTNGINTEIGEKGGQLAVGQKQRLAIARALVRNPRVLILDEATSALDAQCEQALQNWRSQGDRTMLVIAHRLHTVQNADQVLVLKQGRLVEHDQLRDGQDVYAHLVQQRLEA
The experiment in a line: Transporter associated with processing. It is filed as biochemical.

Ends that are not written are not given here. Where only a bound is given, the exact number is not on record here.

In the case of AIYKKSQHM, the figures for the IC50 in test [1] and in test [2] were 0.271 µM and 4.07 µM, respectively.
LNKLFCQL: the IC50 is 2.04 µM in test [1] and 7.16 µM in test [2].
For the sequence TTIHYKYM, in test [2], the IC50 is 5.68 µM.
With TYSPPLNKL, the figures for the concentration for half-maximal inhibition (IC50) in test [1] and in test [2] were 13.6 µM and 5.81 µM, respectively.
On to VMCTYSPPL, for which, in test [2], 2.47 µM corresponded to half-maximal inhibition (IC50).
For YSPPLNKLF, the IC50 in test [1] is 0.464 µM; in test [2] it was over 92.7 µM.

A word on the IC50: it is the concentration at which inhibition is half-maximal.
